Reference: patent US9980943B2, “Methods of treating muscular dystrophy” (BOARD OF REGENTS OF THE NEVADA SYSTEM OF HIGHER EDUCATION, …, priority 2013, dated 2018)
Like-named read-outs stand apart in the source and are kept apart here.

Experiments:
Format in all cases: cell-based, mouse
[1] = system: β-galactosidase in CMV-LacZ C2C12 myoblasts; experiment: CMV-LacZ secondary screen in C2C12 myoblasts (β-Gal stabilizing assay); details: for CMV-LACZ in Myoblasts (β-galactosidase activity relative to DMSO): CMV-LacZ C2C12 myoblasts; for CMV-LACZ in Myoblasts, value relative to DMSO: SU9516 analogs, C2C12 CMV-LacZ, N=2
How it was run: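 β-gal stabilization was measured in C2C12 myoblasts or myotubes stably transfected with a CMV-driven LacZ construct, using the FDG β-gal assay. Compounds were tested in dose-response at 0.5, 1, 5, 10, 20 and 40 μM, with two replicates per point.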

[2] = system: α7 integrin (LacZ reporter in α7+/LacZ myotubes); experiment: Myotube α7 integrin FDG assay (Burkin assay in myotubes, 96-well); details: for fold induction at 0.5 µM / fold induction at 1 µM / fold induction at 5 µM / fold induction at 10 µM / fold induction at 20 µM / fold induction at 40 µM: Mus musculus, Myotube; for fold induction at 0.5 µM / fold induction at 1 µM / fold induction at 5 µM / fold induction at 10 µM / fold induction at 20 µM / fold induction at 40 µM / Burkin Assay in Myotubes, α7 integrin LacZ reporter signal relative to DMSO: myotubes; for Burkin Assay in Myotubes, value relative to DMSO: SU9516 analogs, 96-well, N=3-6
[3] = system: β-galactosidase in CMV-LacZ C2C12 myotubes; experiment: CMV-LacZ secondary screen in C2C12 myotubes (β-Gal stabilizing assay); details: for CMV-LACZ in Myotubes, value relative to DMSO: SU9516 analogs, C2C12 CMV-LacZ, N=2
How it was run: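 Stable CMV-LacZ C2C12 clone; six-point curve 0.5–40 μM; duplicates.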

[4] = system: α7 integrin (LacZ reporter in α7βgal+/− myoblasts); experiment: Myoblast α7+/LacZ integrin FDG assay (Burkin assay in myoblasts, 96-well); details: 96-well; for fold induction at 0.5 µM / fold induction at 1 µM / fold induction at 5 µM / fold induction at 10 µM / fold induction at 20 µM / fold induction at 40 µM: Mus musculus, Myoblast, 48 h; for fold induction at 0.5 µM / fold induction at 1 µM / fold induction at 5 µM / fold induction at 10 µM / fold induction at 20 µM / fold induction at 40 µM / Burkin Assay in Myoblasts, signal relative to DMSO: α7+/LacZ myoblasts; for Burkin Assay in Myoblasts, value relative to DMSO: SU9516 analogs, N=3-6

CCOC(=O)C1CCCN(C(=O)CNS(=O)(=O)c2ccc(Br)s2)C1 (stereo not drawn) [MLS000086970-01]
CMV-LACZ in Myoblasts (β-galactosidase activity relative to DMSO) ([1]; 0.5 uM): 0.9925 | CMV-LACZ in Myoblasts (β-galactosidase activity relative to DMSO) ([1]; 1 uM): 1.0504 | CMV-LACZ in Myoblasts (β-galactosidase activity relative to DMSO) ([1]; 5 uM): 0.8994 | CMV-LACZ in Myoblasts (β-galactosidase activity relative to DMSO) ([1]; 10 uM): 0.9068 | CMV-LACZ in Myoblasts (β-galactosidase activity relative to DMSO) ([1]; 20 uM): 1.0197 | CMV-LACZ in Myoblasts (β-galactosidase activity relative to DMSO) ([1]; 40 uM): 0.8880 | fold induction at 0.5 µM ([2]; 0.5 uM, read-out: Burkin Assay in Myotubes (signal relative to DMSO)): 0.953 | fold induction at 1 µM ([2]; 1 uM, read-out: Burkin Assay in Myotubes (signal relative to DMSO)): 0.922 | fold induction at 5 µM ([2]; 5 uM, read-out: Burkin Assay in Myotubes (signal relative to DMSO)): 1.09 | fold induction at 10 µM ([2]; 10 uM, read-out: Burkin Assay in Myotubes (signal relative to DMSO)): 0.961 | fold induction at 20 µM ([2]; 20 uM, read-out: Burkin Assay in Myotubes (signal relative to DMSO)): 0.931 | fold induction at 40 µM ([2]; 40 uM, read-out: Burkin Assay in Myotubes (signal relative to DMSO)): 0.887 | fold induction at 0.5 µM ([2]; 0.5 uM, read-out: Burkin Assay in Myotubes, α7 integrin LacZ reporter signal relative to DMSO): 1 | fold induction at 1 µM ([2]; 1 uM, read-out: Burkin Assay in Myotubes, α7 integrin LacZ reporter signal relative to DMSO): 1.09 | fold induction at 5 µM ([2]; 5 uM, read-out: Burkin Assay in Myotubes, α7 integrin LacZ reporter signal relative to DMSO): 0.864 | fold induction at 10 µM ([2]; 10 uM, read-out: Burkin Assay in Myotubes, α7 integrin LacZ reporter signal relative to DMSO): 0.958 | fold induction at 20 µM ([2]; 20 uM, read-out: Burkin Assay in Myotubes, α7 integrin LacZ reporter signal relative to DMSO): 0.961 | fold induction at 40 µM ([2]; 40 uM, read-out: Burkin Assay in Myotubes, α7 integrin LacZ reporter signal relative to DMSO): 0.971 | fold induction at 0.5 µM ([3]; Mus musculus, C2C12, read-out: CMV-LACZ in Myotubes, signal relative to DMSO, 0.5 uM, C2C12 CMV-LacZ myotubes, fold relative to DMSO): 0.967 | fold induction at 1 µM ([3]; Mus musculus, C2C12, read-out: CMV-LACZ in Myotubes, signal relative to DMSO, 1 uM, C2C12 CMV-LacZ myotubes, fold relative to DMSO): 0.885 | fold induction at 5 µM ([3]; Mus musculus, C2C12, read-out: CMV-LACZ in Myotubes, signal relative to DMSO, 5 uM, C2C12 CMV-LacZ myotubes, fold relative to DMSO): 1.11 | fold induction at 10 µM ([3]; Mus musculus, C2C12, read-out: CMV-LACZ in Myotubes, signal relative to DMSO, 10 uM, C2C12 CMV-LacZ myotubes, fold relative to DMSO): 0.974 | fold induction at 20 µM ([3]; Mus musculus, C2C12, read-out: CMV-LACZ in Myotubes, signal relative to DMSO, 20 uM, C2C12 CMV-LacZ myotubes, fold relative to DMSO): 0.987 | fold induction at 40 µM ([3]; Mus musculus, C2C12, read-out: CMV-LACZ in Myotubes, signal relative to DMSO, 40 uM, C2C12 CMV-LacZ myotubes, fold relative to DMSO): 0.988 | fold induction at 0.5 µM ([4]; 0.5 uM, read-out: Burkin Assay in Myoblasts, signal relative to DMSO): 0.982 | fold induction at 0.5 µM ([4]; 0.5 uM, read-out: Burkin Assay in Myoblasts, value relative to DMSO): 1.01 | fold induction at 1 µM ([4]; 1 uM, read-out: Burkin Assay in Myoblasts, signal relative to DMSO): 1.07 | fold induction at 1 µM ([4]; 1 uM, read-out: Burkin Assay in Myoblasts, value relative to DMSO): 1.2 | fold induction at 5 µM ([4]; 5 uM, read-out: Burkin Assay in Myoblasts, signal relative to DMSO): 0.858 | fold induction at 5 µM ([4]; 5 uM, read-out: Burkin Assay in Myoblasts, value relative to DMSO): 1.6 | fold induction at 10 µM ([4]; 10 uM, read-out: Burkin Assay in Myoblasts, signal relative to DMSO): 0.872 | fold induction at 10 µM ([4]; 10 uM, read-out: Burkin Assay in Myoblasts, value relative to DMSO): 0.955 | fold induction at 20 µM ([4]; 20 uM, read-out: Burkin Assay in Myoblasts, signal relative to DMSO): 0.854 | fold induction at 20 µM ([4]; 20 uM, read-out: Burkin Assay in Myoblasts, value relative to DMSO): 1.02 | fold induction at 40 µM ([4]; 40 uM, read-out: Burkin Assay in Myoblasts, signal relative to DMSO): 0.781 | fold induction at 40 µM ([4]; 40 uM, read-out: Burkin Assay in Myoblasts, value relative to DMSO): 0.934

Cc1ccccc1/C=C1\C(=O)Nc2ccc(F)cc21 [MLS001197838-01]
CMV-LACZ in Myoblasts, value relative to DMSO ([1]; 0.5 uM): 0.7904 | CMV-LACZ in Myoblasts, value relative to DMSO ([1]; 1 uM): 0.9954 | CMV-LACZ in Myoblasts, value relative to DMSO ([1]; 5 uM): 1.0010 | CMV-LACZ in Myoblasts, value relative to DMSO ([1]; 10 uM): 1.1118 | CMV-LACZ in Myoblasts, value relative to DMSO ([1]; 20 uM): 1.1615 | CMV-LACZ in Myoblasts, value relative to DMSO ([1]; 40 uM): 0.9437 | Burkin Assay in Myotubes, value relative to DMSO ([2]; 0.5 uM): 1.009 | Burkin Assay in Myotubes, value relative to DMSO ([2]; 1 uM): 0.981 | Burkin Assay in Myotubes, value relative to DMSO ([2]; 5 uM): 1.004 | Burkin Assay in Myotubes, value relative to DMSO ([2]; 10 uM): 1.091 | Burkin Assay in Myotubes, value relative to DMSO ([2]; 20 uM): 0.8699 | Burkin Assay in Myotubes, value relative to DMSO ([2]; 40 uM): 0.9981 | CMV-LACZ in Myotubes, value relative to DMSO ([3]; 0.5 uM): 1.0305 | CMV-LACZ in Myotubes, value relative to DMSO ([3]; 1 uM): 1.0038 | CMV-LACZ in Myotubes, value relative to DMSO ([3]; 5 uM): 0.9701 | CMV-LACZ in Myotubes, value relative to DMSO ([3]; 10 uM): 1.1637 | CMV-LACZ in Myotubes, value relative to DMSO ([3]; 20 uM): 0.8547 | CMV-LACZ in Myotubes, value relative to DMSO ([3]; 40 uM): 1.0063 | Burkin Assay in Myoblasts, value relative to DMSO ([4]; 0.5 uM): 1.256 | Burkin Assay in Myoblasts, value relative to DMSO ([4]; 1 uM): 1.198 | Burkin Assay in Myoblasts, value relative to DMSO ([4]; 5 uM): 1.053 | Burkin Assay in Myoblasts, value relative to DMSO ([4]; 10 uM): 1.048 | Burkin Assay in Myoblasts, value relative to DMSO ([4]; 20 uM): 0.8911 | Burkin Assay in Myoblasts, value relative to DMSO ([4]; 40 uM): 0.8648

O=C(N[C@@H](Cc1c[nH]c2ccccc12)C(=O)O)C1CCN(S(=O)(=O)c2cccs2)CC1 [MLS001175021-01]
CMV-LACZ in Myoblasts (β-galactosidase activity relative to DMSO) ([1]; 0.5 uM): 1.1772 | CMV-LACZ in Myoblasts (β-galactosidase activity relative to DMSO) ([1]; 1 uM): 1.0729 | CMV-LACZ in Myoblasts (β-galactosidase activity relative to DMSO) ([1]; 5 uM): 0.9282 | CMV-LACZ in Myoblasts (β-galactosidase activity relative to DMSO) ([1]; 10 uM): 0.9395 | CMV-LACZ in Myoblasts (β-galactosidase activity relative to DMSO) ([1]; 20 uM): 1.1070 | CMV-LACZ in Myoblasts (β-galactosidase activity relative to DMSO) ([1]; 40 uM): 1.0907 | Burkin Assay in Myotubes, α7 integrin LacZ reporter signal relative to DMSO ([2]; 0.5 uM): 1.061 | Burkin Assay in Myotubes, α7 integrin LacZ reporter signal relative to DMSO ([2]; 1 uM): 1.0167 | Burkin Assay in Myotubes, α7 integrin LacZ reporter signal relative to DMSO ([2]; 5 uM): 1.051 | Burkin Assay in Myotubes, α7 integrin LacZ reporter signal relative to DMSO ([2]; 10 uM): 0.9913 | Burkin Assay in Myotubes, α7 integrin LacZ reporter signal relative to DMSO ([2]; 20 uM): 0.9799 | Burkin Assay in Myotubes, α7 integrin LacZ reporter signal relative to DMSO ([2]; 40 uM): 0.8788 | CMV-LACZ in Myotubes, signal relative to DMSO ([3]; 0.5 uM, C2C12 CMV-LacZ myotubes, fold relative to DMSO): 1.0611 | CMV-LACZ in Myotubes, signal relative to DMSO ([3]; 1 uM, C2C12 CMV-LacZ myotubes, fold relative to DMSO): 0.9621 | CMV-LACZ in Myotubes, signal relative to DMSO ([3]; 5 uM, C2C12 CMV-LacZ myotubes, fold relative to DMSO): 0.9049 | CMV-LACZ in Myotubes, signal relative to DMSO ([3]; 10 uM, C2C12 CMV-LacZ myotubes, fold relative to DMSO): 0.7979 | CMV-LACZ in Myotubes, signal relative to DMSO ([3]; 20 uM, C2C12 CMV-LacZ myotubes, fold relative to DMSO): 1.1378 | CMV-LACZ in Myotubes, signal relative to DMSO ([3]; 40 uM, C2C12 CMV-LacZ myotubes, fold relative to DMSO): 0.9733 | Burkin Assay in Myoblasts, signal relative to DMSO ([4]; 0.5 uM): 0.92 | Burkin Assay in Myoblasts, signal relative to DMSO ([4]; 1 uM): 0.9803 | Burkin Assay in Myoblasts, signal relative to DMSO ([4]; 5 uM): 0.8806 | Burkin Assay in Myoblasts, signal relative to DMSO ([4]; 10 uM): 0.906 | Burkin Assay in Myoblasts, signal relative to DMSO ([4]; 20 uM): 0.9747 | Burkin Assay in Myoblasts, signal relative to DMSO ([4]; 40 uM): 0.9575
